From ChEMBL document CHEMBL5154757, “Phosphodiesters as GPR84 Antagonists for the Treatment of Ulcerative Colitis” (J Med Chem, 2022) come the findings set out here.

Where only a bound is given, the exact number is not on record here.

Data set [1] addresses G-protein coupled receptor 84 (Homo sapiens, UniProt Q9NQS5). As to the kind of experiment: Antagonist activity at human GPR84 expressed in HEK293 cells co-expressing Galpha16 assessed as reduction in 6-OAU induced intracellular calcium response preincubated for 10 mins followed by agonist addition and measured after 1 min by calcium mobilization assay. It is filed as functional, cell-based.

A short description of data set [2]: Tmax in CD-1 mouse at 5 mg/kg, po administered as single dose measured upto 24 hrs by LC-MS/MS analysis. It is filed as ADME, organism-based. Particulars: in vivo; call rule not given here.
Data set [3] can be described thus: Oral bioavailability in CD-1 mouse at 5 mg/kg administered as single dose measured upto 24 hrs by LC-MS/MS analysis. Conditions: in vivo. It is filed as ADME, organism-based.
Data set [4] in a line: Clearance in CD-1 mouse at 2 mg/kg, iv administered as single dose measured upto 24 hrs by LC-MS/MS analysis. Conditions: in vivo. Format: ADME, organism-based.
A short description of data set [5]: Half life in CD-1 mouse at 5 mg/kg, po administered as single dose measured upto 24 hrs by LC-MS/MS analysis. Format: ADME, organism-based. Particulars: in vivo.
Data set [6] is described as follows: Volume of distribution at steady state in CD-1 mouse at 2 mg/kg, iv administered as single dose measured upto 24 hrs by LC-MS/MS analysis. Particulars: in vivo, read-out: Vdss. Format: ADME, organism-based.
Data set [7] is described as follows: Cmax in CD-1 mouse at 5 mg/kg, po administered as single dose measured upto 24 hrs by LC-MS/MS analysis. It is filed as ADME, organism-based. Set-up: time < 24 hrs, dose 5 mg/kg, route po. Particulars: in vivo.
The nature of data set [8]: MRT in CD-1 mouse at 5 mg/kg, po administered as single dose measured upto 24 hrs by LC-MS/MS analysis. It is filed as ADME, organism-based. Conditions: in vivo.
Data set [9] addresses G-protein coupled receptor 84 (Mus musculus, UniProt Q8CIM5). Briefly: Antagonist activity at mouse GPR84 expressed in HEK293 cells assessed as reduction in 6-OAU induced intracellular calcium response preincubated for 10 mins followed by agonist addition and measured after 1 min by calcium mobilization assay. Format: functional, cell-based.
Data set [10] in a line: AUC(0 to infinity) in CD-1 mouse at 5 mg/kg, po administered as single dose measured upto 24 hrs by LC-MS/MS analysis. Format: ADME, organism-based. On the set-up: time < 24 hrs, dose 5 mg/kg, route po. Conditions: in vivo.
Data set [11] in a line: AUC(0 to infinity) in CD-1 mouse at 2 mg/kg, iv administered as single dose measured upto 24 hrs by LC-MS/MS analysis. It is filed as ADME, organism-based. On the set-up: time < 24 hrs, dose 2 mg/kg, route iv. Particulars: in vivo.
Data set [12] is described as follows: Half life in CD-1 mouse at 2 mg/kg, iv administered as single dose measured upto 24 hrs by LC-MS/MS analysis. Format: ADME, organism-based. Particulars: in vivo.
Data set [13] can be described thus: MRT in CD-1 mouse at 2 mg/kg, iv administered as single dose measured upto 24 hrs by LC-MS/MS analysis. It is filed as ADME, organism-based. Particulars: in vivo.
A short description of data set [14]: Drug distribution in C57 mouse liver at 3 mg/kg, iv administered as single dose measured upto 8 hrs by LC-MS/MS analysis. Particulars: in vivo. It is filed as ADME, organism-based.
A short description of data set [15]: Drug distribution in C57 mouse duodenum at 5 mg/kg, po administered as single dose measured upto 8 hrs by LC-MS/MS analysis. It is filed as ADME, organism-based. Particulars: in vivo.
For data set [16], the target named is G-protein coupled receptor 84 (Mus musculus) (UniProt Q8CIM5). As to the kind of experiment: Antagonist activity at GPR84 expressed in mouse bone marrow cells assessed as reduction in 3-OH-C12 induced migration in monocytes incubated for 90 mins by flow cytometry. It is filed as functional, cell-based. Conditions: Bone marrow cell, filed as antagonist, dose 0.01-1 µM, DDE = dose-dependent effect.

Data set [17] in a line: Mutagenecity in Salmonella typhimurium TA98 in presence of S9 fraction at 1000 ug by Ames test. Format: toxicity, subcellular, Salmonella enterica subsp. enterica serovar Typhimurium. Particulars: dose 1000 µg.
Data set [18] is described as follows: Drug distribution in DSS-induced ulcerative colitis mouse jejunum at 5 mg/kg, po administered as single dose measured upto 8 hrs by LC-MS/MS analysis. It is filed as ADME, organism-based. Particulars: in vivo.
Data set [19] in a line: Drug distribution in DSS-induced ulcerative colitis mouse colon at 5 mg/kg, po administered as single dose measured upto 8 hrs by LC-MS/MS analysis. It is filed as ADME, organism-based. Particulars: in vivo.
The nature of data set [20]: Mutagenecity in Salmonella typhimurium TA98 in absence of S9 fraction at 1000 ug by Ames test. Particulars: in vivo; dose 1000 µg. Format: toxicity, Salmonella enterica subsp. enterica serovar Typhimurium.
Data set [21] deals with G-protein coupled receptor 84 (Mus musculus) (UniProt Q8CIM5). Briefly: Antagonist activity at GPR84 expressed in mouse bone marrow cells assessed as reduction in 6-OAU induced migration in neutrophils incubated for 90 mins by flow cytometry. Format: functional, cell-based. Conditions: Bone marrow cell, filed as antagonist, dose 0.01-1 µM, DDE = dose-dependent effect.
The subject of data set [22] is Mus musculus. Briefly: Anti-colitis activity against DSS-induced ulcerative colitis mouse model assessed as attenuation of rectal bleeding administered orally once daily for 7 consecutive days. It is filed as functional, organism-based. Particulars: dose 25-100 mg/kg, route po, DDE = dose-dependent effect.
Data set [23] relates to Mus musculus. Briefly: Anti-colitis activity against DSS-induced ulcerative colitis mouse model assessed as attenuation of weight loss administered orally once daily for 7 consecutive days. It is filed as functional, organism-based. Conditions: dose 25-100 mg/kg, route po, DDE = dose-dependent effect.
Data set [24] in a line: Drug distribution in C57 mouse colon at 5 mg/kg, po administered as single dose measured upto 8 hrs by LC-MS/MS analysis. Format: ADME, organism-based. Conditions: in vivo.
The nature of data set [25]: Drug distribution in C57 mouse jejunum at 5 mg/kg, po administered as single dose measured upto 8 hrs by LC-MS/MS analysis. It is filed as ADME, organism-based. Particulars: in vivo.
Data set [26] can be described thus: Mutagenecity in Salmonella typhimurium TA100 in presence of S9 fraction at 1000 ug by Ames test. It is filed as toxicity, subcellular, Salmonella enterica subsp. enterica serovar Typhimurium. Conditions: dose 1000 µg.
For another data set, the system named is Bone marrow cell. As to the kind of experiment: Cytotoxicity against bone marrow cells (unknown origin) assessed as inhibition of cell growth upto 10 uM measured after 1.5 to 2 hrs by ATPlite assay. It is filed as toxicity, cell-based. Particulars: time 1.5-2 hrs.
Data set [27] is described as follows: Drug distribution in C57 mouse ileum at 5 mg/kg, po administered as single dose measured upto 8 hrs by LC-MS/MS analysis. It is filed as ADME, organism-based. Conditions: in vivo.
For a further data set, the system named is HEK293. Briefly: Cytotoxicity against HEK293 cells assessed as inhibition of cell growth upto 100 uM measured after 24 hrs by ATPlite assay. Format: toxicity, cell-based. Particulars: human, hek293, 24 h.
Data set [28] can be described thus: Mutagenecity in Salmonella typhimurium TA100 in absence of S9 fraction at 1000 ug by Ames test. Format: toxicity, Salmonella enterica subsp. enterica serovar Typhimurium. Conditions: in vivo; dose 1000 µg.
In data set [29] the target is G-protein coupled receptor 84 (Mus musculus) (UniProt Q8CIM5). As to the kind of experiment: Antagonist activity at GPR84 expressed in mouse bone marrow cells assessed as reduction in 6-OAU/3-OH-C12 induced migration in monocytes incubated for 90 mins by flow cytometry. Format: functional, cell-based. Particulars: Bone marrow cell, filed as antagonist, dose 0.01-1 µM, DDE = dose-dependent effect.

Data set [30] concerns Mus musculus. Briefly: Anti-colitis activity against DSS-induced ulcerative colitis mouse model assessed as reduction in DAI score administered orally once daily for 7 consecutive days. It is filed as functional, organism-based. Particulars: dose 25-100 mg/kg, route po, DDE = dose-dependent effect.
For data set [31], the target named is G-protein coupled receptor 84 (Mus musculus) (UniProt Q8CIM5). Briefly: Antagonist activity at GPR84 expressed in mouse bone marrow cells assessed as reduction in 3-OH-C12 induced migration in neutrophils incubated for 90 mins by flow cytometry. It is filed as functional, cell-based. Particulars: Bone marrow cell, filed as antagonist, dose 0.01-1 µM, DDE = dose-dependent effect.

Data set [32] has as its system Mus musculus. Briefly: Anti-colitis activity against DSS-induced ulcerative colitis mouse model assessed as attenuation of stool thinning administered orally once daily for 7 consecutive days. It is filed as functional, organism-based. Particulars: dose 25-100 mg/kg, route po, DDE = dose-dependent effect.

G-protein coupled receptor 84 (Mus musculus), sequence (Q8CIM5 whole entry): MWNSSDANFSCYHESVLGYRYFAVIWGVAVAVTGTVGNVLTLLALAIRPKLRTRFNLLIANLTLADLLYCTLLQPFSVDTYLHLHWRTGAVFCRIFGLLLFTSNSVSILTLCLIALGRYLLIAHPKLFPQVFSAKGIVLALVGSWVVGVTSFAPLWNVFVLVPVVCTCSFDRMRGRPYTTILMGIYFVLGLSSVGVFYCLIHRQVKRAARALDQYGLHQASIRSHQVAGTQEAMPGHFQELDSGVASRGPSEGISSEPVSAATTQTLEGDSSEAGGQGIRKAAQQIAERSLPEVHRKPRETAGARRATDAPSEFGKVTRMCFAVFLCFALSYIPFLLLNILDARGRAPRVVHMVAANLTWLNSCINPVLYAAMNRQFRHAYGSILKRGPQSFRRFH
G-protein coupled receptor 84 (Homo sapiens, UniProt Q9NQS5), sequence (Q9NQS5 whole entry): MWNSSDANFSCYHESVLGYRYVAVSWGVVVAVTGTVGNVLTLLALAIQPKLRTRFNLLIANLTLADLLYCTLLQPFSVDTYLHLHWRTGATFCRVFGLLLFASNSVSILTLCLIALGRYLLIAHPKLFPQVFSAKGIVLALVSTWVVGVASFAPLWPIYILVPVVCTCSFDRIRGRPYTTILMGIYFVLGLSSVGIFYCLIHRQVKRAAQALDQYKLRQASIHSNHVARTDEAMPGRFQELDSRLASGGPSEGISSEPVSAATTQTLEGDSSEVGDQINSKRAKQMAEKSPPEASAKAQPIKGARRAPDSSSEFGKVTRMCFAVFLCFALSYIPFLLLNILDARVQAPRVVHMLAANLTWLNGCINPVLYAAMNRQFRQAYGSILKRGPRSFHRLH
G-protein coupled receptor 84 (Mus musculus, UniProt Q8CIM5), sequence (Q8CIM5 whole entry): as the sequence (Q8CIM5 whole entry) above

In the case of `O=P(O)(O)OC1=Cc2ccccc2Sc2ccccc21`, the IC50 in [1] is greater than 100000 nM.

Consider `O=c1nc(OCC2COCCO2)cc2n1CCc1cc(OCc3ccccn3)ccc1-2` (stereo unspecified), for which, in [1], the IC50 turned out to be 716 nM.

`O=P([O-])(OC1=Cc2ccccc2Sc2ccccc21)OC1=Cc2ccccc2Sc2ccccc21.[Na+]`: in data set [2], the Tmax was 1.67 h. In addition, the bioavailability in data set [3] was found to be 15.7%. In data set [4], the clearance is 23.7 mL/min/kg. For the same molecule, the half-life is 1.62 h in data set [5] and 1.14 h in data set [12]. The Vd in [6] turned out to be 1.31 L/kg. The same molecule had a Cmax in data set [7] of 192 ng/mL. For the same molecule, the MRT in data set [8] amounted to 4.05 h; in data set [13] it was 0.932 h. Also, the IC50 in data set [9] was 454 nM. Besides, the AUC(0-inf) in data set [10] is 562 ng·h/mL; in data set [11], 1420 ng·h/mL.

On to `COc1cccc2c1Sc1ccccc1C=C2OP(=O)([O-])OC1=Cc2ccccc2Sc2c(OC)cccc21.[Na+]`, for which the Tmax in data set [2] is 1 h. Also, the bioavailability in data set [3] came out at 2.3%. The clearance in data set [4] is 7.5 mL/min/kg. Besides, the half-life in data set [5] was 4.99 h; in data set [12], 5.59 h. In addition, in [6], the Vd was found to be 0.8 L/kg. This molecule returned a Cmax in data set [7] of 43.6 ng/mL. Further, the MRT in data set [8] was found to be 7.41 h; in data set [13], 1.82 h. The AUC(0-inf) in [10] came out at 236 ng·h/mL; in data set [11], 4640 ng·h/mL.

For the molecule `COP(=O)(OC1=Cc2ccccc2Sc2ccccc21)OC1=Cc2ccccc2Sc2ccccc21`, the IC50 in [1] is greater than 100000 nM.

For `O=P([O-])(OC1=Cc2c(Cl)cccc2Sc2ccccc21)OC1=Cc2c(Cl)cccc2Sc2ccccc21.[Na+]`, the time to peak (Tmax) in data set [2] was determined as 2.67 h. For the same molecule, the Drug uptake entry in [14], in data set [15], in [18], in data set [19], in [24] and in [25] was “Active” each time. Moreover, the Drug uptake entry in [27] is given as “Active”. For the same molecule, the Activity entry is “Dde” in [16]; “Non-Toxic” in data set [17]; “Non-Toxic” in data set [20]; “Dde” in data set [21]; “Dde” in the data set with Mus musculus [22]; “Dde” in the data set with Mus musculus [23]. Moreover, the Activity entry in data set [26] was “Non-Toxic”; in the data set with Bone marrow cell, “Non-Toxic”; with HEK293, “Non-Toxic”; in data set [28] it was “Non-Toxic”; in [29], “Dde”; in the data set on Mus musculus [30] it was “Dde”. For the same molecule, the Activity result (in data set [31]; with Mus musculus [32]) was “Dde” in each case. The same molecule gave a bioavailability in data set [3] of 11.9%. In [4], the clearance was 20.3 mL/min/kg. For the same molecule, the half-life was 4.39 h in data set [5] and 5.12 h in data set [12]. Besides, the Vd in [6] was determined as 2.98 L/kg. This molecule displayed a Cmax in [7] of 81.8 ng/mL. Further, the MRT in data set [8] amounted to 7.09 h; in data set [13] it was 2.26 h. Besides, in [9], the IC50 came to 273 nM. In addition, the AUC(0-inf) in [10] turned out to be 517 ng·h/mL; in data set [11], 1710 ng·h/mL.

Take `O=c1nc(OC[C@@H]2COCCO2)cc2n1CCc1cc(C#CC3CC3)ccc1-2`: the Activity result in [16], in [21], in data set [29] and in data set [31] was “Dde” in each case.

With `O=P(O)(CC1=Cc2ccccc2Sc2ccccc21)CC1=Cc2ccccc2Sc2ccccc21`, the IC50 in data set [1] turned out to be 1930 nM.

For the molecule `O=P(O)(Oc1ccccc1)Oc1ccccc1`, the IC50 in data set [1] is greater than 100000 nM.

For `COc1cccc2c1Sc1cccc(F)c1C=C2OP(=O)([O-])OC1=Cc2c(F)cccc2Sc2c(OC)cccc21.[Na+]`, the Tmax in data set [2] amounted to 0.42 h. In data set [3], the bioavailability worked out at 0.91%. In data set [4], this molecule gave a clearance of 4.33 mL/min/kg. For the same molecule, the results for the half-life in data set [5] and in data set [12] were 1.91 h and 5.75 h, respectively. Further, the Vd in data set [6] is 0.5 L/kg. This molecule had a Cmax in [7] of 74.3 ng/mL. Besides, the values for the MRT in data set [8] and in [13] were 2.21 h and 1.89 h, respectively. Also, the AUC(0-inf) in data set [10] was determined as 178 ng·h/mL; in [11] it was 7760 ng·h/mL.
